Measured values taken from ChEMBL document CHEMBL1201862, “PubChem BioAssay data set” (2004).
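Cells were grown in 96-well plates and exposed to each compound for 48 hours at five concentrations; endpoints were interpolated linearly between bracketing concentrations, or set to the highest concentration if not reached. The concentration for 50% growth inhibition is given as GI50.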 The source made the active and inactive calls. Rule as the data show it: active = GI50 up to about 1.1 µM and inactive = higher.

Experiments:
Assay in all cases: DTP human tumour cell line panel, 48 h
SF-295 = system: SF-295
CAKI-1 = system: CAKI-1
HOP-62 = system: HOP-62
HCC 2998 = system: HCC 2998
HOP-92 = system: HOP-92
MOLT-4 = system: MOLT-4
UACC-62 = system: UACC-62
COLO 205 = system: COLO 205
KM12 = system: KM12
786-0 = system: 786-0
HL-60 = system: HL-60
SF-539 = system: SF-539
SK-MEL-2 = system: SK-MEL-2
OVCAR-4 = system: OVCAR-4
NCI-H460 = system: NCI-H460
SNB-75 = system: SNB-75
NCI-H522 = system: NCI-H522
LOX IMVI = system: LOX IMVI
ACHN = system: ACHN

Measured: GI50

CCCCSC1CCSc2c1ccc1ccccc21 (stereo not drawn)
inactive: SF-295 > 100 µM | CAKI-1 > 100 µM | HOP-62 > 100 µM | HCC 2998 65.9 µM | HOP-92 46.8 µM | MOLT-4 34.3 µM | UACC-62 > 100 µM | COLO 205 > 100 µM | KM12 > 100 µM | 786-0 > 100 µM | HL-60 93.1 µM | SF-539 > 100 µM | SK-MEL-2 > 100 µM | OVCAR-4 > 100 µM

CCOC(=O)C1S/C(=N\c2cccc(Cl)c2C)N=C1C (stereo not drawn)
inactive: SF-295 18.8 µM | HOP-62 80 µM | NCI-H460 33 µM | HCC 2998 > 10 µM | HOP-92 15.1 µM | SNB-75 16.3 µM | MOLT-4 29.7 µM | COLO 205 21.4 µM | NCI-H522 18.8 µM | KM12 27 µM | 786-0 16.1 µM | HL-60 21.6 µM | SF-539 25.6 µM | LOX IMVI 18.1 µM | SK-MEL-2 19.5 µM | OVCAR-4 31 µM | ACHN 25.3 µM

CC(=O)OCCOCNC(=S)N/N=C(\C)c1cnccn1
inactive: SF-295 36.3 µM | HOP-62 27.4 µM | NCI-H460 20.9 µM | HCC 2998 29 µM | SNB-75 33.5 µM | MOLT-4 14.1 µM | UACC-62 13.5 µM | COLO 205 28.1 µM | NCI-H522 25.2 µM | KM12 43.3 µM | 786-0 33.4 µM | HL-60 15.7 µM | SF-539 29.8 µM | LOX IMVI 57.1 µM | SK-MEL-2 > 100 µM | OVCAR-4 > 100 µM | ACHN 13.6 µM

CC12CCC(=O)N1c1cc([N+](=O)[O-])ccc1N2 (stereo not drawn)
inactive: SF-295 > 100 µM | HOP-62 > 100 µM | SNB-75 > 100 µM | MOLT-4 > 100 µM | UACC-62 > 100 µM | COLO 205 > 100 µM | NCI-H522 > 100 µM | KM12 > 100 µM | 786-0 > 100 µM | HL-60 > 100 µM | SF-539 > 100 µM | LOX IMVI > 100 µM | SK-MEL-2 > 100 µM | OVCAR-4 > 100 µM | ACHN > 100 µM

NNC(=O)CNC(=O)c1ccc(Cl)cc1Cl
inactive: SF-295 > 100 µM | CAKI-1 > 100 µM | HOP-62 > 100 µM | NCI-H460 > 100 µM | HCC 2998 > 100 µM | HOP-92 > 100 µM | SNB-75 > 100 µM | MOLT-4 > 100 µM | UACC-62 > 100 µM | COLO 205 > 100 µM | NCI-H522 > 100 µM | KM12 > 100 µM | 786-0 39.8 µM | HL-60 > 100 µM | SF-539 > 100 µM | OVCAR-4 > 100 µM | ACHN > 100 µM

CC(C)CCC[C@@H](C)C1CCC2[C@@H]3CC=C4C[C@@H](OC(=O)CCC(=O)NCC[N+](C)(C)CCCS(=O)(=O)[O-])CC[C@]4(C)C3CC[C@@]21C (stereo partly drawn)
inactive: SF-295 17 µM | CAKI-1 40.7 µM | HOP-62 17.6 µM | NCI-H460 15.2 µM | HCC 2998 20.6 µM | SNB-75 21.1 µM | MOLT-4 19.1 µM | UACC-62 26.3 µM | COLO 205 19.6 µM | NCI-H522 26.2 µM | KM12 20.5 µM | 786-0 25.8 µM | HL-60 18.8 µM | SF-539 16.7 µM | LOX IMVI 17.2 µM | SK-MEL-2 18.8 µM | OVCAR-4 17.9 µM | ACHN 23.9 µM

O=C(OC1CC(n2cc(F)c(=O)[nH]c2=O)OC1CSC(=O)c1ccccc1)c1ccccc1 (stereo not drawn)
inactive: SF-295 33.7 µM | HOP-62 51.3 µM | NCI-H460 35.3 µM | HCC 2998 4.85 µM | HOP-92 22.9 µM | SNB-75 19.4 µM | MOLT-4 25.7 µM | UACC-62 36.4 µM | COLO 205 29.6 µM | NCI-H522 19.5 µM | KM12 27.4 µM | 786-0 32.1 µM | HL-60 23.3 µM | SF-539 36.5 µM | LOX IMVI 50.9 µM | SK-MEL-2 48.5 µM | OVCAR-4 16.6 µM | ACHN 34.6 µM

COC(=O)C1=C(C(=O)OC)C2(C)Nc3ccccc3C2=C(c2ccccc2)C1 (stereo not drawn)
inactive: SF-295 23.2 µM | HOP-62 22.4 µM | NCI-H460 19.4 µM | HCC 2998 26.2 µM | HOP-92 13.3 µM | SNB-75 2.13 µM | MOLT-4 11.9 µM | UACC-62 16.7 µM | COLO 205 19.2 µM | NCI-H522 15.8 µM | KM12 13.5 µM | 786-0 22.5 µM | HL-60 19.9 µM | SF-539 17.1 µM | LOX IMVI 25.7 µM | SK-MEL-2 17.8 µM | OVCAR-4 17.9 µM | ACHN 22.1 µM

CCCCN(CCCC)C(=O)C(=O)CC(=O)c1ccc(Br)cc1
inactive: SF-295 > 100 µM | CAKI-1 > 100 µM | HOP-62 > 100 µM | NCI-H460 > 100 µM | HCC 2998 > 100 µM | HOP-92 > 100 µM | MOLT-4 > 100 µM | UACC-62 > 100 µM | COLO 205 > 100 µM | NCI-H522 > 100 µM | KM12 > 100 µM | 786-0 > 100 µM | HL-60 > 100 µM | SF-539 > 100 µM | LOX IMVI > 100 µM | SK-MEL-2 > 100 µM | OVCAR-4 > 100 µM | ACHN > 100 µM

O=c1cc(-c2ccccc2)oc2cc(OCC(O)COc3ccc4c(=O)cc(-c5ccccc5)oc4c3)ccc12
inactive: SF-295 38.4 µM | CAKI-1 > 100 µM | HOP-62 8.43 µM | NCI-H460 40.3 µM | HOP-92 26.5 µM | MOLT-4 40.2 µM | UACC-62 > 100 µM | NCI-H522 28.4 µM | KM12 > 100 µM | 786-0 17.4 µM | HL-60 23 µM | SF-539 22.4 µM | LOX IMVI 25.3 µM | SK-MEL-2 21.5 µM

CCOc1ccc(NC(=O)CC2C(=O)Nc3ccccc3S2(=O)=O)cc1 (stereo not drawn)
inactive: SF-295 49.4 µM | HOP-62 41.1 µM | NCI-H460 > 100 µM | HCC 2998 > 100 µM | HOP-92 13.3 µM | SNB-75 18.1 µM | MOLT-4 > 100 µM | COLO 205 > 100 µM | NCI-H522 > 100 µM | KM12 > 100 µM | 786-0 33.7 µM | HL-60 > 100 µM | SF-539 55.1 µM | LOX IMVI > 100 µM | SK-MEL-2 75.2 µM | OVCAR-4 > 100 µM | ACHN > 100 µM

CCC1=C(C)/C(=C/c2[nH]c(C(Br)Br)c(CC)c2C)N=C1C(Br)Br
inactive: SF-295 26.1 µM | HOP-62 28.6 µM | NCI-H460 26.4 µM | HCC 2998 12.8 µM | HOP-92 74.1 µM | SNB-75 21.6 µM | MOLT-4 5.93 µM | UACC-62 31 µM | COLO 205 5.87 µM | NCI-H522 13 µM | KM12 19.1 µM | 786-0 63.2 µM | HL-60 16.9 µM | SF-539 53 µM | LOX IMVI 21.2 µM | SK-MEL-2 38 µM | ACHN 14.6 µM

C[N+](C)(C)CCC(=O)CC[N+](C)(C)C
inactive: SF-295 18.7 µM | CAKI-1 15.7 µM | HOP-62 > 100 µM | NCI-H460 28.2 µM | HCC 2998 16.2 µM | SNB-75 19.9 µM | MOLT-4 4.14 µM | UACC-62 21.5 µM | COLO 205 16.4 µM | NCI-H522 15.4 µM | KM12 20 µM | 786-0 18.9 µM | HL-60 4.09 µM | SF-539 19.8 µM | SK-MEL-2 21.5 µM | OVCAR-4 17.7 µM | ACHN 17 µM

O=C1C=C(N2CCCC2)C(=O)c2c(O)ccc(O)c21
inactive: SF-295 > 10 µM | HOP-62 > 10 µM | NCI-H460 > 10 µM | HCC 2998 > 10 µM | HOP-92 > 10 µM | SNB-75 > 10 µM | MOLT-4 2.37 µM | UACC-62 7.28 µM | KM12 > 10 µM | 786-0 > 10 µM | HL-60 4.52 µM | SF-539 > 10 µM | LOX IMVI > 10 µM | SK-MEL-2 > 10 µM | ACHN > 10 µM

NC(=O)C(N)=O
inactive: SF-295 > 100 µM | HOP-62 > 100 µM | NCI-H460 > 100 µM | HCC 2998 > 100 µM | HOP-92 > 100 µM | MOLT-4 > 100 µM | UACC-62 > 100 µM | COLO 205 > 100 µM | NCI-H522 > 100 µM | KM12 > 100 µM | 786-0 > 100 µM | HL-60 > 100 µM | SF-539 > 100 µM | LOX IMVI > 100 µM | SK-MEL-2 > 100 µM | ACHN > 100 µM

C=CCCCCn1c2ccccc2c2c(C)c3c[n+](C)ccc3c(C)c21
inactive: CAKI-1 14.3 µM | ACHN 2.68 µM
active: SF-295 0.208 µM | HOP-62 0.643 µM | NCI-H460 0.356 µM | HOP-92 0.237 µM | SNB-75 0.713 µM | MOLT-4 0.298 µM | UACC-62 0.336 µM | COLO 205 0.25 µM | NCI-H522 0.176 µM | KM12 0.392 µM | 786-0 0.752 µM | HL-60 0.171 µM | SF-539 0.564 µM | LOX IMVI 0.284 µM | SK-MEL-2 0.396 µM | OVCAR-4 0.284 µM

Nc1ncnc(NC2C=C(CO)C(O)C2O)c1[N+](=O)[O-] (stereo not drawn)
inactive: SF-295 > 100 µM | CAKI-1 > 100 µM | HOP-62 > 100 µM | NCI-H460 > 100 µM | HCC 2998 > 100 µM | SNB-75 > 100 µM | MOLT-4 > 100 µM | UACC-62 > 100 µM | COLO 205 60.3 µM | KM12 > 100 µM | 786-0 > 100 µM | HL-60 > 100 µM | SF-539 > 100 µM | LOX IMVI > 100 µM | SK-MEL-2 > 100 µM | OVCAR-4 > 100 µM | ACHN > 100 µM
